Data on 16 compounds can be found in patent publication US11185074B2, “Microbiocidal quinoline (thio)carboxamide derivatives” (SYNGENTA PARTICIPATIONS AG, priority 2017, dated 2021).

Read-outs that look alike come from different tables or passages of the source.

Data set [1] has as its system Glomerella lagenarium (Colletotrichum lagenarium). Kind of data set: Glomerella lagenarium (Colletotrichum lagenarium) / liquid culture (anthracnose). Type of data set: cell-based. The following applies: Colletotrichum orbiculare, read-out: control of Glomerella lagenarium.
Another data set concerns Fusarium culmorum. As to the kind of experiment: microbe, parasite or virus in culture. Type of data set: cell-based. To be noted: read-out: control of Fusarium culmorum.
In data set [2] the test system is Botryotinia fuckeliana (Botrytis cinerea). Kind of data set: Botryotinia fuckeliana (Botrytis cinerea) / liquid culture (gray mould). The following applies: 72 h, read-out: control of Botryotinia fuckeliana. The data set is classed as cell-based.
Data set [3] deals with Monographella nivalis (Microdochium nivale). As to the kind of experiment: Monographella nivalis (Microdochium nivale) / liquid culture (foot rot cereals). The data set is classed as cell-based. The following applies: 96 h, inhibition of growth photometrically 4-5 days after application, compared to untreated control.
The test system of data set [4] is Magnaporthe grisea (Pyricularia oryzae). As to the kind of experiment: microbe, parasite or virus in culture. The data set is classed as cell-based. To be noted: 72 h, read-out: control of Magnaporthe grisea.
Where [5] appears, read: 20 ppm, liquid culture, inhibition of growth photometrically 3-4 days after application, compared to untreated control.

By melting point is commonly meant the temperature of the solid-liquid transition. Regarding `C/C(=C\c1ccccc1)CC(C)(C)NC(=O)c1cc2cccc(F)c2nc1C`, the melting point is 108 to 110 °C.

`CCCCCC(C)(C)NC(=O)c1cnc2c(F)cccc2c1` [E-1]: the inhibition of growth at 20 ppm (in data set [1]; in the data set on Fusarium culmorum; in data set [2]) was not below 80% in each case.

`CC(C)(NC(=O)c1cnc2c(F)cccc2c1)C1CCCCC1` [E-7]: the inhibition of growth at 20 ppm (in data set [3]; in data set [1] (setting [5]); in the data set on Fusarium culmorum; in data set [2] (setting [5])) was not below 80% each time.

Consider `CC(C)=CCC(C)(CC(C)C)NC(=O)c1cnc2ccccc2c1` (stereo not shown) [E-13], for which the inhibition of growth at 20 ppm (in data set [3]; in data set [1] (setting [5]); in the data set on Fusarium culmorum; in data set [4]; in data set [2] (setting [5])) was not below 80% in each case.

`CC(C)=C(C)CC(C)(CC(C)C)NC(=O)c1cnc2c(F)cccc2c1` (stereo not shown) [E-15]: the inhibition of growth at 20 ppm (in data set [3]; in data set [1] (setting [5]); with Fusarium culmorum; in data set [4]; in data set [2] (setting [5])) was not below 80% throughout.

In the case of `CC(C)CC(C)CC(C)(C)NC(=O)c1cnc2c(F)cccc2c1` (stereo not shown) [E-22], the inhibition of growth at 20 ppm (in data set [3]; in data set [1] (setting [5]); in the data set with Fusarium culmorum; in data set [4]; in data set [2] (setting [5])) was not below 80% in each case.

`CC(C)CC=CCC(C)(C)NC(=O)c1cnc2c(F)c(F)ccc2c1` [E-33]: the inhibition of growth at 20 ppm (in data set [3]; in data set [1] (setting [5]); in the data set on Fusarium culmorum; in data set [2] (setting [5])) was not below 80% throughout.

As for `CC(C)(C/C=C/c1ccccc1)NC(=O)c1cnc2c(F)c(F)ccc2c1` [E-34], the inhibition of growth at 20 ppm (in data set [3]; in the data set with Fusarium culmorum; in data set [2] (setting [5])) was not below 80% throughout.

As to `CC(C)CC(C)(C#N)NC(=O)c1cnc2c(F)cccc2c1` (stereo not shown) [E-35], the melting point was in the range of 167 to 171 °C. In addition, the inhibition of growth at 20 ppm in the data set on Fusarium culmorum was not below 80%.

Turning to `CCC(CC)CC(C)NC(=O)c1cnc2ccccc2c1` (stereo not shown) [E-38], the inhibition of growth at 20 ppm (in data set [3]; in data set [1] (setting [5]); in the data set on Fusarium culmorum; in data set [2] (setting [5])) was not below 80% in each case.

For `CCC(CC)CC(C)NC(=O)c1cnc2c(C)cccc2c1` (stereo not shown) [E-39], the inhibition of growth at 20 ppm (in data set [1] (setting [5]); in the data set on Fusarium culmorum; in data set [2] (setting [5])) was not below 80% in each case.

Consider `CCC(CC)CC(C)NC(=O)c1cnc2c(F)cccc2c1` (stereo not shown) [E-40], for which the inhibition of growth at 20 ppm (in data set [3]; in data set [1] (setting [5]); in the data set on Fusarium culmorum; in data set [2] (setting [5])) was not below 80% throughout.

Take `CCCC(C)CC(C)NC(=O)c1cnc2ccccc2c1` (stereo not shown) [E-41]: the inhibition of growth at 20 ppm (in data set [1] (setting [5]); with Fusarium culmorum; in data set [2] (setting [5])) was not below 80% each time.

For the compound `CCC(CC)CC(C)(CC(F)(F)F)NC(=O)c1cnc2c(C)cccc2c1` (stereo not shown) [E-44], the inhibition of growth at 20 ppm (in data set [3]; in data set [1] (setting [5]); in the data set on Fusarium culmorum; in data set [4]; in data set [2] (setting [5])) was not below 80% throughout.

On to `CC(CC1CC=CCC1)NC(=O)c1cnc2ccccc2c1` (stereo not shown) [E-49], for which the inhibition of growth at 20 ppm (in data set [1] (setting [5]); in the data set on Fusarium culmorum; in data set [2] (setting [5])) was not below 80% in each case.

As to `CCCC(C)CC(C)NC(=O)c1cnc2c(F)cccc2c1` (stereo not shown) [E-51], the inhibition of growth at 20 ppm (in data set [3]; in data set [1] (setting [5]); in the data set with Fusarium culmorum; in data set [2] (setting [5])) was not below 80% in each case.
